Data from ChEMBL document CHEMBL3045819, “Potent limonoid insect antifeedant from Melia azedarach” (2002).

Tests used:
Assay type in all cases: functional
[1] = tested on: Spodoptera eridania; experiment: Antifeedant activity against larvae of Spodoptera eridania in Cucurbita maxima leaves at 0.25 ug/cm2 after 24 hr by leaf disk choice test
[2] = tested on: Spodoptera eridania; experiment: Antifeedant activity against larvae of Spodoptera eridania in Cucurbita maxima leaves at 0.5 ug/cm2 after 24 hr by leaf disk choice test
[3] = tested on: Spodoptera eridania; experiment: Antifeedant activity against larvae of Spodoptera eridania in Cucurbita maxima leaves at 1 ug/cm2 after 24 hr by leaf disk choice test
[4] = tested on: Spodoptera eridania; experiment: Antifeedant activity against larvae of Spodoptera eridania in Cucurbita maxima leaves at 4 ug/cm2 after 24 hr by leaf disk choice test
[5] = tested on: Spodoptera eridania; experiment: Antifeedant activity against larvae of Spodoptera eridania in Cucurbita maxima leaves at 10 ug/cm2 after 24 hr by leaf disk choice test
[6] = tested on: Spodoptera eridania; experiment: Antifeedant activity against larvae of Spodoptera eridania in Cucurbita maxima leaves at 14 ug/cm2 after 24 hr by leaf disk choice test
[7] = tested on: Epilachna; experiment: Antifeedant activity against larvae of Epilachna paenulata in Cucurbita maxima leaves at 4 ug/cm2 after 24 hr by leaf disc choice test
[8] = tested on: Epilachna; experiment: Antifeedant activity against larvae of Epilachna paenulata in Cucurbita maxima leaves at 8 ug/cm2 after 24 hr by leaf disc choice test
[9] = tested on: Epilachna; experiment: Antifeedant activity against larvae of Epilachna paenulata in Cucurbita maxima leaves at 10 ug/cm2 after 24 hr by leaf disc choice test
[10] = tested on: Epilachna; experiment: Antifeedant activity against larvae of Epilachna paenulata in Cucurbita maxima leaves at 0.5 ug/cm2 after 24 hr by leaf disc choice test
[11] = tested on: Epilachna; experiment: Antifeedant activity against larvae of Epilachna paenulata in Cucurbita maxima leaves at 1 ug/cm2 after 24 hr by leaf disc choice test

SMILES	AFI [1] [%]	AFI [2] [%]	AFI [3] [%]	AFI [4] [%]	AFI [5] [%]	AFI [6] [%]	AFI [7] [%]	AFI [8] [%]	AFI [9] [%]	AFI [10] [%]	AFI [11] [%]
CC(=O)O[C@@H]1C[C@H](O)[C@@]23CO[C@@H](O)[C@]1(C)[C@@H]2C[C@@H](O)[C@]1(C)[C@@H]3C(=O)[C@H](OC(C)=O)[C@@]2(C)[C@H](c3ccoc3)C[C@H]3O[C@]321 [TOOSENDANIN]	45.8	58.7	65.1	71.8	79.3	87.8	54.8	78.2	90.7		
C/C=C(\C)C(=O)O[C@H]1C[C@@H](OC(C)=O)[C@@]2(C(=O)OC)CO[C@H]3[C@@H](O)[C@@](C)([C@]45O[C@@]4(C)[C@@H]4C[C@H]5O[C@@H]5OC=C[C@@]54O)[C@H]4[C@]1(CO[C@]4(O)C(=O)OC)[C@@H]32 [AZADIRACHTIN A]	57.3	91.2	94.2	94			97.6			35.7	62.2
CC(=O)O[C@@H]1C[C@H](O)[C@@]23CO[C@H](O)[C@]1(C)[C@@H]2C[C@@H](O)[C@]1(C)[C@@H]3C(=O)[C@H](O)[C@@]2(C)[C@H](c3ccoc3)C[C@H]3O[C@@]321 [12-HYDROXYAMOORASTATIN]	35.5	57.5	91.2	95.5			96.1			36.4	52.1
